BindingDB's records for PubMed 2704370 (National Institute of Mental Health, 1989)

How the values were obtained:
[1] = molecular target: T1, Muscarinic acetylcholine receptor M5 (Homo sapiens, UniProt P08912)
T1 sequence (P08912 whole entry): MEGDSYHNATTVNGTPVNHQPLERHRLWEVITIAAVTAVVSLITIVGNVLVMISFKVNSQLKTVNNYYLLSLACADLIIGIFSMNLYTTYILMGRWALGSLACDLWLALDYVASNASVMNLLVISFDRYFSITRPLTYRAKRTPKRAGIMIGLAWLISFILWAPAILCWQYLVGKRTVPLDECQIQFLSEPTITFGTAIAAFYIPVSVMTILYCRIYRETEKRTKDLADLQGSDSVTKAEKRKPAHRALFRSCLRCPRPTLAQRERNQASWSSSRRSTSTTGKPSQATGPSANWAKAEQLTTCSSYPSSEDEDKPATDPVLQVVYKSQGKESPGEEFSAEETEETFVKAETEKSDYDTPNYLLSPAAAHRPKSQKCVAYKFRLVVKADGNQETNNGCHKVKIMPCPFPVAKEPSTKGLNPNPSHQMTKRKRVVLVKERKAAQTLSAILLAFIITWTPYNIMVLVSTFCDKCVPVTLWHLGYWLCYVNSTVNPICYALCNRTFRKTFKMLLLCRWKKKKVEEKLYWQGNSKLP

[2] = molecular target: T2, Muscarinic acetylcholine receptor M1 (Rattus norvegicus, UniProt P08482)
T2 sequence (P08482 whole entry): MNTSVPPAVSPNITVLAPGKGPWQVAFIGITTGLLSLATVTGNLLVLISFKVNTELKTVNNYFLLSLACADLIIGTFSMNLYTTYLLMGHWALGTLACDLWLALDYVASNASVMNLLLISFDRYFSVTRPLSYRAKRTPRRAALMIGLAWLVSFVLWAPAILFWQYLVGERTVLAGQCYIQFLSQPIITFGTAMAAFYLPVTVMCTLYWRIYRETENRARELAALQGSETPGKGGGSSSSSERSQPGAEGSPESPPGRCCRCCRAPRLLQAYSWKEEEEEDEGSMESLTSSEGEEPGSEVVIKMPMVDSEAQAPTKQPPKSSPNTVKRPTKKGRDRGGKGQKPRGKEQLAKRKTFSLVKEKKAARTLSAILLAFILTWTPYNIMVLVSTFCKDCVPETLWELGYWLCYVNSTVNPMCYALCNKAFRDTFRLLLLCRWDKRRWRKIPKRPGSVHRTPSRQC

[3] = molecular target: T3, Muscarinic acetylcholine receptor M4 (Homo sapiens, UniProt P08173)
T3 sequence (P08173 whole entry): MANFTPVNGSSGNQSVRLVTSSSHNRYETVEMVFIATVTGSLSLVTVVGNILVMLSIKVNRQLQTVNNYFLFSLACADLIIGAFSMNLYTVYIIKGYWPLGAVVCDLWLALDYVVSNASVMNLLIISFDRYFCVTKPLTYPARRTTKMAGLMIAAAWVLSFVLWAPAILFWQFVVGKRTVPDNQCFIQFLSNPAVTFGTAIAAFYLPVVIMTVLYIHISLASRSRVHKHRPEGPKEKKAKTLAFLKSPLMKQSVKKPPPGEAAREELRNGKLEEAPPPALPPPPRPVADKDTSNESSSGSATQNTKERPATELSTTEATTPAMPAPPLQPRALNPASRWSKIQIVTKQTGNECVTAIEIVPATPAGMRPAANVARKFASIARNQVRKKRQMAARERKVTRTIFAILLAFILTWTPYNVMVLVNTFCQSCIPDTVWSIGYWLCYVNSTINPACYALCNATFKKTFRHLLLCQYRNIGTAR

O[Si](CCCN1CCCCC1)(c1ccccc1)C1CCCCC1 (stereo unspecified) [HHSiD]
Ki [1]: 63 nM
Ki [2]: 44 nM

OC(CCCN1CCCCC1)(c1ccccc1)C1CCCCC1 (stereo unspecified) [CAS_113010-69-8]
Ki [1]: 83 nM
Ki [2]: 11 nM

COc1ccccc1CNCCCCCCNCCCCCCCCNCCCCCCNCc1ccccc1OC [METHOCTRAMINE]
Ki [1]: 57 nM

C[N+]1([SiH3])CCN(CC(O)(c2ccccc2)C2CCCCC2)CC1 (stereo unspecified) [CAS_124393-85-7]
Ki [3]: 3.2 nM
Ki [1]: 2 nM
Ki [2]: 2 nM

C[N+]1(C)CCN(CC(O)(c2ccccc2)C2CCCCC2)CC1 (stereo unspecified) [CAS_115-63-9]
Ki [3]: 5.5 nM
Ki [1]: 3.7 nM
Ki [2]: 2.3 nM
